Like-named read-outs stand apart in the source and are kept apart here.
Legend:
[1] = test system: pAKT in BT474 cells; assay: Cell-based pAKT HTRF assay in BT474 cells; details: BT474 cells, 4 hr incubation, read-out: pAKT inhibition IC50 in BT474 cells
In short: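 Compound titration: 3 μM downward in 3-fold steps, nine points, 4 hr on cells. Detection: lysis, then d2 plus Eu Cryptate antibody mix, room-temperature incubation of 4–24 h, and time-resolved fluorescence read at 615 nm.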

[2] = target: Cys242 in human PIK3CA (157-299) (Homo sapiens (Human), UniProt P42336); assay: Covalent modification assay using MALDI-TOF MS; type: biochemical; details: 4 h reaction time point
Sequence of Cys242 in human PIK3CA (157-299) (P42336 157-299): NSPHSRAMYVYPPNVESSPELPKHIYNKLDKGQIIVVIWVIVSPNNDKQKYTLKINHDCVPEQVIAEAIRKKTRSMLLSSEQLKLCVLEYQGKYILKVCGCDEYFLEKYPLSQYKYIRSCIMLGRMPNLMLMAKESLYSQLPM
In short: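 PIK3CA (157-299), 3.33 or 1 μM in 20 mM HEPES, 150 mM NaCl, 2 mM MgCl2, pH 7.3, was incubated with compound at room temperature in the dark for 15 min, 30 min, 2 h or 4 h. Linear MALDI-TOF read-out; % modification = adduct peak height over summed heights of all protein species.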

[3] = 3.33 μM protein target, 1:7.5 protein to compound ratio (compounds 1-852)
[4] = Homo sapiens, BT-474, Compounds 10-999
[5] = 1 μM protein target, 1:5 protein to compound ratio (compounds 853-1279)

Compound | IC50 ([1]; Compounds 10-999) [nM] | % of modification [2, 3] | further results
C=CC(=O)N1CCn2nc(-c3nc(-c4cnc(C)nc4)c4ccsc4c3-c3c(F)cc(F)cc3OCC(C)O)cc2C1C (centres unmarked) [Compound 771] | < 100 | A (percent of modification of PIK3CA protein ≥75%) | 
C=CC(=O)N1CCc2nc(-c3nc(-c4cnn(CC(C)(C)O)c4)c4ccsc4c3-c3c(F)cc(F)cc3OC(C)C)sc2C1 [Compound 344] | < 100 | A (percent of modification of PIK3CA protein ≥75%) | 
C=CC(=O)N1CCn2nc(-c3nc(-c4ccc5c(c4)CCNC5=O)c4ccsc4c3-c3ccc(F)cc3OC(C)C)cc2C1 [Compound 199, 6-[7-(4-fluoro-2-isopropoxy-phenyl)-6-(5-prop-2-enoyl-6,7-dihydro-4H-pyrazolo[1,5-a]pyrazin-2-yl)thieno[3,2-c]pyridin-4-yl]-3,4-dihydro-2H-isoquinolin-1-one] |  | A (percent of modification of PIK3CA protein ≥75%) | IC50 [1, 4]: < 100 nM
C=CC(=O)N1CCc2cc(-c3nc(-c4ccc5c(cnn5C)c4)c4ccsc4c3-c3c(F)cc(F)cc3OCCO)nn2CC1 [Compound 1207, (S)-1-(2-(7-(2,4-difluoro-6-(2-hydroxyethoxy)phenyl)-4-(1-methyl-1H-indazol-5-yl)thieno[3,2-c]pyridin-6-yl)-4,5,7,8-tetrahydro-6H-pyrazolo[1,5-d][1,4]diazepin-6-yl)prop-2-en-1-one] |  |  | IC50 ([1]; Homo sapiens, BT-474, Compounds 1000-1279): < 100 nM; % of modification [2, 5]: A (percent of modification of PIK3CA protein ≥75%)
C=CC(=O)N1CCc2nc(-c3nc(-c4ccc(C5(N)CCC5)cc4)c4ccsc4c3-c3c(F)cc(F)cc3OCCOC)sc2C1 [Compound 436] | 100 to 1000 | A (percent of modification of PIK3CA protein ≥75%) | 
C=CC(=O)N1Cc2cc(-c3nc(-c4ccc5c(c4)CCN(C)C5)c4ccsc4c3-c3c(F)cc(F)cc3OC3CC3)nn2C[C@H]1C [Compound 516] | < 100 | A (percent of modification of PIK3CA protein ≥75%) | 
C=CC(=O)N1CC[C@@H](n2cc(-c3nc(-c4cncc(C#N)c4)c4ccsc4c3-c3c(F)cc(F)cc3OC(C)C)cn2)C1 [Compound 388] | 100 to 1000 | A (percent of modification of PIK3CA protein ≥75%) | 
C=CC(=O)N1CCc2ncc(-c3nc(-c4cn(C)cn4)c4ccsc4c3-c3c(F)cc(F)cc3OCCOC)cc2C1 [Compound 943] | < 100 |  | % of modification [2, 5]: A (percent of modification of PIK3CA protein ≥75%)
C=CC(=O)N1CCc2nc(-c3nc(-c4ccc5c(c4)C(N)CC5)c4ccsc4c3-c3ccc(F)cc3OCCOC)sc2C1 (centres unmarked) [Compound 162] | < 100 | A (percent of modification of PIK3CA protein ≥75%) | 
C=CC(=O)N1CCn2nc(-c3nc(-c4ccc5c(c4)CN(C)C5=O)c4ccsc4c3-c3c(F)cc(F)cc3OC[C@@H](C)O)cc2[C@H]1C [Compound 763] | < 100 | A (percent of modification of PIK3CA protein ≥75%) | 
C=CC(=O)N1CCc2ncc(-c3nc(-c4ccc(=O)n(C)c4)c4ccsc4c3-c3c(F)cc(F)cc3OCCOC)cc2C1 [Compound 375] | < 100 | A (percent of modification of PIK3CA protein ≥75%) | 
C=CC(=O)N1CC(n2cc(-c3nc(-c4ccnc(N)c4)c4ccsc4c3-c3ccc(F)cc3OCCOC)cn2)C1 [Compound 234] | < 100 | A (percent of modification of PIK3CA protein ≥75%) | 
C=CC(=O)N1CCc2nc(-c3nc(-c4ccc5c(c4)CCN(C)C5)c4ccsc4c3-c3c(F)cc(F)cc3OC(C)C)sc2C1 (single isomer, unassigned) [Compound 448] | < 100 | A (percent of modification of PIK3CA protein ≥75%) | 
C=CC(=O)N1CCc2nc(-c3nc(-c4cnc5c(c4)CCN(C)C5)c4ccsc4c3-c3c(F)cc(F)cc3OC(C)C)sc2C1 [Compound 518] | < 100 | A (percent of modification of PIK3CA protein ≥75%) | 
C=CC(=O)N1CCc2ncc(-c3nc(-c4ccc5c(c4)CN(C)C5=O)c4ccsc4c3-c3c(F)cc(F)cc3OCCOC)cc2C1 [Compound 402] | < 100 | A (percent of modification of PIK3CA protein ≥75%) | 
C=CC(=O)N1CCc2ncc(-c3nc(-c4cccc(C#N)c4)c4ccsc4c3-c3c(F)cc(F)cc3OC(C)C)cc2C1 [Compound 381] | < 100 | A (percent of modification of PIK3CA protein ≥75%) | 
C=CC(=O)N1Cc2cc(-c3nc(-c4cnc5c(c4)CN(C)C5=O)c4ccsc4c3-c3c(F)cc(F)cc3OCCOC)nn2C[C@H]1C [Compound 504] | < 100 | A (percent of modification of PIK3CA protein ≥75%) | 

Compound | IC50 ([1]; Compounds 10-999) [nM] | % of modification [2, 3] | further results
C=CC(=O)N1CC[C@@H](n2cc(-c3nc(-c4ccn(C)c(=O)c4)c4ccsc4c3-c3c(F)cc(F)cc3OC(C)C)cn2)C1 [Compound 386] | < 100 | A (percent of modification of PIK3CA protein ≥75%) | 
C=CC(=O)N1CCc2cc(-c3nc(-c4ccc5c(c4)CCNC5=O)c4ccsc4c3-c3c(F)cc(F)cc3OCCO)nn2CC1 [Compound 1202] |  |  | IC50 ([1]; Compounds 1000-1279): < 100 nM; % of modification [2, 5]: A (percent of modification of PIK3CA protein ≥75%)
C=CC(=O)N1CCn2nc(-c3nc(-c4ccc(CCN(C)C)cc4)c4ccsc4c3-c3c(F)cc(F)cc3OCCOC)cc2C1C (centres unmarked) [Compound 1060] |  |  | IC50 ([1]; Compounds 1000-1279): < 100 nM; % of modification [2, 5]: A (percent of modification of PIK3CA protein ≥75%)
C=CC(=O)N1CC(n2cc(-c3nc(-c4cnn(C)c4)c4ccsc4c3-c3ccc(F)cc3OC)cn2)C1 [Compound 76] | < 100 | A (percent of modification of PIK3CA protein ≥75%) | 
C=CC(=O)N1CCn2nc(-c3nc(-c4ccc5c(cnn5C)c4F)c4ccsc4c3-c3c(F)cc(F)cc3OCCOC)cc2C1C (centres unmarked) [Compound 1144] |  |  | IC50 ([1]; Compounds 1000-1279): < 100 nM; % of modification [2, 5]: A (percent of modification of PIK3CA protein ≥75%)
C=CC(=O)N1Cc2cc(-c3nc(-c4ccc5c(=O)n(C)ncc5c4)c4ccsc4c3-c3c(F)cc(F)cc3OCCOC)nn2C[C@H]1C [Compound 849] | < 100 | A (percent of modification of PIK3CA protein ≥75%) | 
C=CC(=O)N1Cc2cc(-c3nc(-c4ccc5nncn5c4)c4ccsc4c3-c3c(F)cc(F)cc3OCCOC)nn2[C@@H](C)C1 [Compound 693] | < 100 | A (percent of modification of PIK3CA protein ≥75%) | 
C=C(F)C(=O)N1CCn2nc(-c3nc(-c4ccc5c(c4)CNC5=O)c4ccsc4c3-c3c(F)cc(F)cc3OCC)cc2C1 [Compound 321] | < 100 | B (50%<percent of modification <75%) | 
C=CC(=O)N1CC(n2cc(-c3nc(-c4ccc5c(c4)CCNC5)c4c(c3-c3ccc(F)cc3OC)CCC4)cn2)C1 [Compound 97, 1-[3-[4-[4-(4-fluoro-2-methoxy-phenyl)-1-(1,2,3,4-tetrahydroisoquinolin-6-yl)-6,7-dihydro-5H-cyclopenta[c]pyridin-3-yl]pyrazol-1-yl]azetidin-1-yl]prop-2-en-1-one] |  | A (percent of modification of PIK3CA protein ≥75%) | IC50 [1, 4]: 100 to 1000 nM
C=CC(=O)N1CCn2nc(-c3nc(-c4cccc(CN(C)C)c4)c4ccsc4c3-c3c(F)cc(F)cc3OCCOC)cc2C1C (centres unmarked) [Compound 1061] |  |  | IC50 ([1]; Compounds 1000-1279): < 100 nM; % of modification [2, 5]: A (percent of modification of PIK3CA protein ≥75%)
CC#CC(=O)N1CCn2nc(-c3nc(-c4ccc5c(c4)CCNC5=O)c4ccsc4c3-c3ccc(F)cc3OC(C)C)cc2C1 [Compound 268] | 100 to 1000 | A (percent of modification of PIK3CA protein ≥75%) | 
C=CC(=O)N1CCn2nc(-c3nc(-c4ccn5ccnc5c4)c4ccsc4c3-c3c(F)cc(F)cc3OCCOC)cc2C1C (centres unmarked) [Compound 1040] |  |  | IC50 ([1]; Compounds 1000-1279): < 100 nM; % of modification [2, 5]: A (percent of modification of PIK3CA protein ≥75%)
C=C(F)C(=O)N1CCn2nc(-c3nc(-c4cnc5c(c4)CNC5=O)c4ccsc4c3-c3c(F)cc(F)cc3OC(C)C)cc2C1 [Compound 356] | < 100 | A (percent of modification of PIK3CA protein ≥75%) | 
C=CC(=O)N1CCn2nc(-c3nc(-c4cnc5c(c4)CN(C)C5=O)c4ccsc4c3-c3c(F)cc(F)cc3OCCO)cc2C1C (centres unmarked) [Compound 924] | < 100 |  | % of modification [2, 5]: A (percent of modification of PIK3CA protein ≥75%)
C=CC(=O)N1CCn2nc(-c3nc(-c4cnn(C5CN(C)C5)c4)c4ccsc4c3-c3c(F)cc(F)cc3OCCOC)cc2C1C (centres unmarked) [Compound 1029] |  |  | IC50 ([1]; Compounds 1000-1279): < 100 nM; % of modification [2, 5]: A (percent of modification of PIK3CA protein ≥75%)
C=CC(=O)N1Cc2cc(-c3nc(-c4ccc5c(c4)N(C)C(=O)C5)c4ccsc4c3-c3c(F)cc(F)cc3OCCOC)nn2C[C@H]1C [Compound 692] | < 100 | A (percent of modification of PIK3CA protein ≥75%) | 
C=CC(=O)N1CCn2nc(-c3nc(-c4cnn(C)c4)c4ccsc4c3-c3ccc(F)cc3OCCOC)cc2C1 [Compound 194, 1-[2-[7-[4-fluoro-2-(2-methoxyethoxy)phenyl]-4-(1-methylpyrazol-4-yl)thieno[3,2-c]pyridin-6-yl]-6,7-dihydro-4H-pyrazolo[1,5-a]pyrazin-5-yl]prop-2-en-1-one] |  | A (percent of modification of PIK3CA protein ≥75%) | IC50 [1, 4]: < 100 nM
